The results in this text go back to patent US20260234146A1, “Use of Hypoxia-Inducible Factor-Prolyl Hydroxylase Inhibitor (HIF-PHI) in Rare Anemia” (Kind Pharmaceutical, priority 2023, published 2026).

The assay relates to Townes SCD model mouse. The assay can be described thus: Effect on SCD anemia mice (RBC, Hb, HCT). Format: in vivo. How it is done:
Throughout the experimental stage, animals were housed in cages in an animal room with 24-hour continuous central air conditioning, temperature set at 20-26° C., relative air humidity set at 40-70%, and a 12-hour light/dark cycle. All animals had free access to food and sterilized drinking water. The animal strain was B6·Cg-Hbb^tm2(HBG1,HBB)Tow/Hbat^ml(HBA)Tow/ShmtJ mice, a Townes SCD model mouse where mouse endogenous hemoglobin is replaced by knocked-in human hemoglobin. Two weeks after birth, mice were ear-punched for identification, and the ear tissue was collected for PCR analysis to determine its genotype. Mice confirmed as B6·Cg-Hbb^tm2(HBG1,HBB)Tow/Hbat^ml(HBA)Tow/ShmtJ were grouped. […] Blood sampling was performed every other week. Mice showing symptoms of anemia were selected for dosing. Animals were randomly divided into groups, 6 animals per group: Vehicle control group (0.1 M meglumine aqueous solution; oral gavage; volume: 6.67 mL/kg), Comp-1 group (30 mpk; oral gavage; volume: 6.67 mL/kg), and EPO group (50 U/30 g body weight; SC injection; MyBioSource, cat. #: MBS650094, erythropoietin alpha). Dosing was administered three times a week (TIW) for 4 consecutive weeks. On days 14 and 28 of dosing, 70 μL of blood was collected from orbit. Collected blood samples were placed in heparin-anticoagulant tubes. 15 μL of the blood sample from the anticoagulant tube was aspirated and added to an Element HT5 Veterinary Hematology Analyzer. RBC, Hb, and HCT in the blood were measured according to the instrument's operating instructions. Data analysis was performed using GraphPad Prism 9.0. […]

The mark [1] stands for this setting: 30 mg/kg group, Before dosing Week 0.
The mark [2] stands for this setting: 30 mg/kg oral TIW, After 2 weeks of dosing Week 2.
[3] abbreviates: 30 mg/kg oral TIW, After 4 weeks of dosing Week 4.

With `O=C(O)CNC(=O)C1=C(O)C2(CCCC2)n2c(ccc2-c2ccccc2)C1=O` [Comp-1, (6′-hydroxy-8′-oxo-3′-phenyl-8′H-spiro[cyclopentane-1,5′-indolizine]-7′-carbonyl)glycine], under setting [1], the “Arithmetic mean of HCT hematocrit” value came out at 27.20%, the “Arithmetic mean of HGB hemoglobin content” value turned out to be 8.47 g/dL and the “Arithmetic mean of RBC red blood cell count” value was 6.34 M/μL. Under setting [2], the “Arithmetic mean of HCT hematocrit” value is 40.05%, the “Arithmetic mean of HGB hemoglobin content” value is recorded as 11.63 g/dL and the “Arithmetic mean of RBC red blood cell count” value was 8.88 M/μL. In addition, under setting [3], the “Arithmetic mean of HCT hematocrit” value stood at 41.45%, the “Arithmetic mean of HGB hemoglobin content” value was 12.10 g/dL and the “Arithmetic mean of RBC red blood cell count” value is listed as 9.09 M/μL.
